For assay [1], the target named is T1, recombinant human Cox-1 (r-hu Cox-1) (Homo sapiens, UniProt P23219).
T1 construct: made in house; host or cells: baculovirus/Sf9 insect cells (microsomes)
Nature of the assay: Recombinant human PGHS-1 (r-hu Cox-1) enzyme assay, PGE2 by EIA. In kind it is biochemical. The note with it: read-out: r-hu COX1 percent inhibition. On the procedure: (§1) To compare the mean responses of the treatment groups, analysis of variance was applied. Percent inhibition values were determined by comparing the individual treatment mean values to the mean of the control group. Linear regression was used to estimate IC50's/ED50's in appropriate assays.
(§2) EIA reagents for prostaglandin determination were purchased from Perseptive Diagnostics, (Cambridge, MA). Prostaglandin E2 (PGE2) levels in lavage fluids were determined after the samples were dried under nitrogen and reconstituted with assay buffer. PGE2 levels in enzyme assays or cell culture media were measured against standards prepared in the same milieu. The immunoassays were conducted as recommended by the manufacturer. The EIA was conducted in 96 well microtiter plates (Nunc Roskilde, Denmark) and optical density was measured using a microplate reader (Vmax, Molecular Devices Corp., Menlo Park, CA).
(§3) Inhibition of prostaglandin biosynthesis in vitro was evaluated using recombinant human Cox-1 (r-hu Cox-1) and Cox-2 (r-hu Cox-2) enzyme assays. […] The reaction was allowed to run for 2.5 minutes at room temperature prior to quenching with HCl and neutralization with NaOH. PGE2 production in the presence and absence of the drug was determined by EIA analysis. The EIA was conducted in 96 well microtiter plates (Nunc Roskilde, Denmark) and optical density was measured using a microplate reader (Vmax, Molecular Devices Corp., Menlo Park, CA). EIA reagents for prostaglandin determination were purchased from Perseptive Diagnostics (Cambridge, MA). PGE2 levels were measured against standards prepared in the same milieu. The immunoassays were conducted as recommended by the manufacturer. The compounds are designated by the Example Number. […] Values for Cox-2 inhibition that are parenthetical indicate IC50 values.

The target in assay [2] is T2, recombinant human Cox-2 (r-hu Cox-2) (Homo sapiens, UniProt P35354).
T2 construct: made in house; host or cells: baculovirus/Sf9 insect cells (microsomes)
T2 sequence (P35354 18-604): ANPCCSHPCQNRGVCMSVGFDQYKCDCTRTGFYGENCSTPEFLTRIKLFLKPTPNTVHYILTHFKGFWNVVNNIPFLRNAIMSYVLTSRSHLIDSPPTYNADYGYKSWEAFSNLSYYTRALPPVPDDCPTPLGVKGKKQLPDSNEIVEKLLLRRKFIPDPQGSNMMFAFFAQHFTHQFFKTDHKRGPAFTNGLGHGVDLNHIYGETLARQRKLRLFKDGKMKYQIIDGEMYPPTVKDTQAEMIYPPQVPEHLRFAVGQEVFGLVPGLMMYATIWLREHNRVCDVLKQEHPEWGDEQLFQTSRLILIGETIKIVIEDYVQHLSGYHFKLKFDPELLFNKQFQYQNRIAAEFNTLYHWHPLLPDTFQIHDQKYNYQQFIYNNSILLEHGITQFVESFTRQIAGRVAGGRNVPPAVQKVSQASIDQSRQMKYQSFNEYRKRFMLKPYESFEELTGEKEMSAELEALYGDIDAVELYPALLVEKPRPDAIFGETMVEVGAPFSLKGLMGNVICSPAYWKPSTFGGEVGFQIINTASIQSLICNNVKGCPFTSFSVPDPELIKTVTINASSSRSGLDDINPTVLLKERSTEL
Nature of the assay: Recombinant human PGHS-2 (r-hu Cox-2) enzyme assay, PGE2 by EIA. Type of assay: biochemical. As to conditions: for IC50: parenthetical values indicate IC50, read-out: r-hu COX2 IC50 (parenthetical values); for inhibition at 10 µM: at 10000 nM; for inhibition at 10 µM / inhibition at 0.1 µM: read-out: r-hu COX2 percent inhibition; for inhibition at 0.1 µM: at 100 nM. On the procedure: as §1, §2, §3

Assay [3] has as its system Human amnionic WISH cells. Nature of the assay: IL-1β induced PGE2 production in WISH cells. Type of assay: cell-based. The note with it: IL-1β induced PGE2, 18 hour incubation; for inhibition at 1 µM: at 1000 nM; for IC50: parenthetical value, read-out: WISH (parenthetical value, IC50 by analogy with Table 1). On the procedure: as §2
Human amnionic WISH cells were grown to 80% confluence in 48 well plates. Following removal of the growth medium and two washings with Gey's Balanced Salt Solution, 5 ng IL-1β/ml (UBI, Lake Placid, NY) was added to the cells with or without test compound in DMSO (0.01% v/v) in Neuman-Tytell Serumless Medium (GIBCO, Grand Island, NY). Following an 18 hour incubation to allow for the maximal induction of PGHS-2, the conditioned medium was removed and assayed for PGE2 content by EIA analysis as described above.
WISH cell values indicate percent inhibition at the particular nanomolar dose level.

Assay [4] has as its system male adrenalectomized Sprague-Dawley rats. Nature of the assay: Rat carrageenan pleural inflammation (CIP) model. Type of assay: in vivo. As to conditions: 10 milligrams per kilogram body weight, oral, 30 minutes prior to carrageenan; lavage four hours later; inhibition of prostaglandin biosynthesis. The protocol:
For oral administration, test compounds were suspended on the day of use in 100% polyethyleneglycol (PEG 400) with a motorized homogenizer equipped with a Teflon-coated pestle (TRI-R Instrument, Jamaica, NY).
as §1, §2
Pleural inflammation was induced in male adrenalectomized Sprague-Dawley rats following the method of Vinegar et al., Fed. Proc. 1976, 35, 2447-2456. […] Eicosanoids were determined by EIA as described above. […]

Where [5] appears, read: Homo sapiens, read-out: WISH percent inhibition.

T1 sequence (P23219 24-599): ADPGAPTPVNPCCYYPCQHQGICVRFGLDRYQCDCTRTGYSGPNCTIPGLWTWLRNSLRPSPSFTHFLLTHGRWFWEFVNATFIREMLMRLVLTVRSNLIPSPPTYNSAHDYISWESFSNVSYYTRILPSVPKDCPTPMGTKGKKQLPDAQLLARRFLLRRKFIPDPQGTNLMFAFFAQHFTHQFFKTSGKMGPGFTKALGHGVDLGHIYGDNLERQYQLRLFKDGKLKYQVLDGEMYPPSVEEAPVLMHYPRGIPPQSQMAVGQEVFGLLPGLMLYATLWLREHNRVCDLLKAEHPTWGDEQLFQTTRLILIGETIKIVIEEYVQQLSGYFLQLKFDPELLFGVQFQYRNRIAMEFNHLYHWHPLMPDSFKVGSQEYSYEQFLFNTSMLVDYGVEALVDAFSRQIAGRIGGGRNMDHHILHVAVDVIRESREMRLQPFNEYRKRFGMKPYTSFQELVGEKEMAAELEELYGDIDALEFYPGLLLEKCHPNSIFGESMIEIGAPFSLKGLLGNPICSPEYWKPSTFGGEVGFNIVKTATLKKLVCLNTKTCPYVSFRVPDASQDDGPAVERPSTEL

Consider `CS(=O)(=O)c1ccc(-c2nn3c(c2-c2ccc(F)cc2)OCCC3)cc1` [Example 1, 3-(4-Fluorophenyl)-2-(4-(methylsulphonyl)phenyl)-6,7-dihydro-5H-pyrazolo[5,1-b][1,3]oxazine], for which the inhibition at 100 µM in assay [1] turned out to be 4%. For the same compound, in assay [2], the IC50 was 720 nM. Besides, the inhibition at 1 µM in assay [3] (setting [5]) amounted to 19%.

For the compound `CS(=O)(=O)c1ccc(-c2nn3c(c2-c2ccc(F)cc2)OCCCC3)cc1` [Example 2, 3-(4-Fluorophenyl)-2-(4-(methylsulphonyl)phenyl)-5,6,7,8-tetrahydropyrazolo[5,1-b][1,3]oxazepine], the inhibition at 100 µM in assay [1] was determined as 9%. In addition, in assay [2], the inhibition at 10 µM was found to be 57%.

As for `CS(=O)(=O)c1ccc(-c2nn3c(c2-c2ccc(F)cc2)OCc2ccccc2C3)cc1` [Example 3], the inhibition at 100 µM in assay [1] worked out at 20%. Also, in assay [2], the IC50 was 90 nM. In addition, the inhibition at 0.01 µM in assay [3] (Homo sapiens, at 10 nM, read-out: WISH percent inhibition) is 43%. In addition, in assay [4], the “CIP Inh @10mpk” value is 3%.

Take `CS(=O)(=O)c1ccc(-c2nn3c(c2-c2ccc(F)cc2)OCC=CC3)cc1` [Example 4, 3-(4-Fluorophenyl)-2-(4-methylsulponylphenyl) -5,8-dihydropyrazolo[5,1-b][1,3]oxazepine]: the inhibition at 100 µM in assay [1] worked out at 12%. In assay [2], the inhibition at 10 µM came out at 62%.

Regarding `CS(=O)(=O)c1ccc(-c2nn3c(c2-c2ccc(F)cc2)OCC3)cc1` [Example 5, 7-(4-Fluorophenyl)-6-(4-(methylsulphonyl)phenyl)-2,3-dihydropyrazolo[5,1-b][1,3]oxazole], the inhibition at 1 µM in assay [3] (setting [5]) was 33%.

Turning to `CS(=O)(=O)c1ccc(-c2nn3c(c2-c2ccc(F)cc2)OCc2ccccc2-3)cc1` [Example 6, 3-(4-Fluorophenyl)-2-(4-(methylsulphonyl)phenyl)-5H-pyrazolo[1,5-b][1,3]-benzoxazine], the inhibition at 100 µM in assay [1] stood at 25%. The inhibition at 0.1 µM in assay [2] turned out to be 82%.

In the case of `CS(=O)(=O)c1ccc(-c2nn3c(-c4ccccc4)coc3c2-c2ccc(F)cc2)cc1` [Example 37, 7-(4-Fluorophenyl)-6-(4-(methylsulphonyl)phenyl)-3-phenylpyrazolo[5,1-b][1,3]oxazole], in assay [4], the “CIP Inh @10mpk” value is reported as 0%.

Regarding `CS(=O)(=O)c1ccc(-c2nn3c(C4C5CC6CC(C5)CC4C6)coc3c2-c2ccc(F)cc2)cc1` (stereo not shown) [Example 39, 3-(2-Adamantyl)-7-(4-fluorophenyl)-6-(4-(methylsulphonyl)phenyl)pyrazolo[5,1-b][1,3]oxazole], the WISH percent inhibition was 38% in assay [3] (at 0.1 (nM)) and 95% in assay [3] (at 1 (nM)).

For the compound `Cc1oc2c(-c3ccc(F)cc3)c(-c3ccc(S(C)(=O)=O)cc3)nn2c1-c1ccccc1` [Example 41, 7-(4-Fluorophenyl)-2-methyl-6-(4-(methylsulphonyl)phenyl)-3-phenylpyrazolo[5,1-b][1,3]oxazole], the WISH percent inhibition in assay [3] (at 0.1 (nM)) is listed as 33%; in assay [3] (at 1 (nM)) it was 52%.

Consider `CS(=O)(=O)c1ccc(-c2nn3c4c(oc3c2-c2ccc(F)cc2)CCCC4)cc1` [Example 42, 3-(4-Fluorophenyl)-2-(4-(methylsulphonyl)phenyl)-5,6,7,8-tetrahydropyrazolo[5,1-b][1,3]benzoxazole], for which the inhibition at 100 µM in assay [1] was determined as 23%. In assay [2], the inhibition at 0.1 µM came to 86%. Further, the WISH percent inhibition in assay [3] (at 0.01 (nM)) came to 37%; in assay [3] (at 0.1 (nM)), 81%.

In the case of `Cc1c(C#N)oc2c(-c3ccc(F)cc3)c(-c3ccc(S(C)(=O)=O)cc3)nn12` [Example 54, 2-Cyano-7-(4-fluorophenyl)-3-methyl-6-(4-(methylsulphonyl)phenyl)pyrazolo[5,1-b][1,3]oxazole], in assay [3] (Homo sapiens), the IC50 turned out to be 0.2 nM.

As to `CC(C)(C)c1coc2c(-c3ccc(F)cc3)c(-c3ccc(S(N)(=O)=O)cc3)nn12` [Example 55], the inhibition at 10 µM in assay [1] (at 10 µM) was 99%. Also, the inhibition at 0.1 µM in assay [2] was found to be 88%.

For the compound `CC=CC(=O)c1oc2c(-c3ccc(F)cc3)c(-c3ccc(S(C)(=O)=O)cc3)nn2c1C` [Example 58, 1-[7-(4-Fluorophenyl)-3-methyl-6-(4-(methylsulphonyl)phenyl)pyrazolo[5,1-b][1,3]oxazol-2-yl]but-2-en-1-one], in assay [3] (at 0.1 (nM)), the WISH percent inhibition is reported as 84 @ 0.1%.

As for `Cc1c(C#N)oc2c(-c3ccc(F)cc3)c(-c3ccc(S(N)(=O)=O)cc3)nn12` [Example 59, 6-(4-(Aminosulphonyl)phenyl)-2-cyano-7-(4-Fluorophenyl)-3-methyl-pyrazolo[5,1-b][1,3]oxazole], the inhibition at 100 µM in assay [1] turned out to be 96%. In addition, the inhibition at 0.1 µM in assay [2] worked out at 51%.

With `CCc1coc2c(-c3ccc(F)cc3)c(-c3ccc(S(C)(=O)=O)cc3)nn12` [Example 61, 3-Ethyl-7-(4-fluorophenyl)-6-(4-(methylsulphonyl)phenyl)pyrazolo[5,1-b][1,3]oxazole], the inhibition at 100 µM in assay [1] is 23%. Besides, the inhibition at 0.1 µM in assay [2] was 94%.

Take `CCc1coc2c(-c3ccc(F)cc3)c(-c3ccc(S(N)(=O)=O)cc3)nn12` [Example 62, 6-(4-(aminosulphonyl)phenyl)-3-Ethyl-7-(4-fluorophenyl)pyrazolo[5,1-b][1,3]oxazole]: the inhibition at 100 µM in assay [1] amounted to 91%. Also, the values for the IC50 in assay [2] and in assay [3] (Homo sapiens) were 2 nM and 0.21 nM, respectively.

As usually defined, the inhibition is the change of the read-out against control, counted positive when it falls. A word on the IC50: it is the point on the concentration scale where inhibition reaches its midpoint.

These data come from patent EP1206474B1, “SULFONYLPHENYLPYRAZOLE COMPOUNDS USEFUL AS COX-2 INHIBITORS” (ABBOTT LABORATORIES, priority 1999, dated 2001).
